According to ChEMBL document CHEMBL6087451, “Design, Synthesis, and Biological Evaluation of 2-Arylaminopyrimidine Derivatives as Dual Cathepsin L and JAK Inhibitors for the Treatment of Acute Lung Injury” (J Med Chem, 2025):
Active and inactive are the calls of the source. The rule behind the calls is not given here.

Assays:
Mus musculus [1] = assay: (§1) Anti-inflammatory activity in C57BL/6 mouse model of LPS-induced acute lung injury assessed as decrease in alveolar hemorrhage in lung at 10 mg/kg, ip treated for 3 days followed by LPS treatment after 1 hr post-compound administration on fourth day measured after 18 hrs post-LPS treatment by H and E staining based analysis; type: functional, organism-based; conditions: time 91.0 hrs
cells = conditions: Homo sapiens, HBE
Description: Anti-inflammatory activity against HBE cells assessed as inhibition of LPS-induced IL-8 level pretreated for 30 mins followed by LPS treatment for 24 hrs by ELISA

Procathepsin L [2] = target: T1, Procathepsin L (Homo sapiens, UniProt P07711); assay: Inhibition of CTSL maturation in HBE cells pretreated for 30 mis followed by LPS treatment for 16 hrs by Western blot analysis; type: cell-based; conditions: dose 0.5-5 µM, time 16.5 hrs
Mus musculus [3] = assay: In vivo inhibition of mature CTSL in lung of C57BL/6 mouse model of LPS-induced acute lung injury at 10 to 20 mg/kg, ip treated for 3 days followed by LPS treatment after 1 hr post-compound administration on fourth day measured after 18 hrs post-LPS treatment by Western blot analysis; type: functional, organism-based; conditions: dose 10-20 mg/kg, time 91.0 hrs
Mus musculus [4] = assay: as §1, with “IL-1beta mRNA level” for “alveolar hemorrhage”, “RT-qPCR” for “H and E staining based”; type: functional, organism-based; conditions: time 91.0 hrs
[5] = Cmax in Sprague-Dawley rat at 3.5 mg/kg, iv measured for 24 hrs by LC-MS/MS analysis; type: ADME, organism-based; conditions: in vivo
[6] = Half life in Sprague-Dawley rat at 3.5 mg/kg, ip measured for 24 hrs by LC-MS/MS analysis; type: ADME, organism-based; conditions: in vivo
Procathepsin L [7] = target: T1, Procathepsin L; assay: Induction of thermal stabilization of pro-CTSL in protein lysate extracted from human THP-1 cells pretreated for 6 hrs followed by heat exposure at 37 to 62 degreeC for 3 mins by CETSA; type: subcellular; conditions: time 363.0 min
Mus musculus [8] = assay: as §1, with “pulmonary edema” for “alveolar hemorrhage”; type: functional, organism-based; conditions: time 91.0 hrs
RAW264.7 [9] = assay: Anti-inflammatory activity against mouse RAW264.7 cells assessed as inhibition of LPS-induced IL-1beta level
Mus musculus [10] = assay: as §1, with “disruption of endothelial cell structures” for “alveolar hemorrhage”; type: functional, organism-based; conditions: time 91.0 hrs
RAW264.7 [11] = assay: Anti-inflammatory activity against mouse RAW264.7 cells assessed as inhibition of LPS-induced p38 phosphorylation at 50 to 500 nM by Western blot analysis; type: functional, cell-based; conditions: dose 50-500 nM
[12] = target: Receptor-type tyrosine-protein kinase FLT3 (Homo sapiens) (UniProt P36888); assay: Inhibition of FLT3 (unknown origin) at 1 uM by kinase profiling analysis relative to control
[13] = target: T2, Serine/threonine-protein kinase Chk1 (Homo sapiens) (UniProt O14757); assay: Inhibition of CHK1 (unknown origin) at 1 uM by kinase profiling analysis relative to control
T2 sequence (whole entry): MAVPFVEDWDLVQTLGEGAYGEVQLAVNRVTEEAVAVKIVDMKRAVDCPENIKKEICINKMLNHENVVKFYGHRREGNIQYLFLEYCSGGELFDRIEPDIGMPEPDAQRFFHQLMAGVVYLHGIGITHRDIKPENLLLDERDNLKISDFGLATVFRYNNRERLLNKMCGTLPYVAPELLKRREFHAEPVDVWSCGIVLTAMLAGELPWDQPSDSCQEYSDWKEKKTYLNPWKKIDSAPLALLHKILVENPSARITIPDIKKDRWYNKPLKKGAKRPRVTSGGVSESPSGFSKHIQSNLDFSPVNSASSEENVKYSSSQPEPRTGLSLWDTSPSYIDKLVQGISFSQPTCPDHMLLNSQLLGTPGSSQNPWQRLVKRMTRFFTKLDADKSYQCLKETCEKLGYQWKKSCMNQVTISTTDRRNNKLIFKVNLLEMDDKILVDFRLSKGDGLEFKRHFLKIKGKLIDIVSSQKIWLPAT

HBE [14] = assay: Anti-inflammatory activity against HBE cells assessed as inhibition of LPS-induced p-p65 level pretreated for 30 mis followed by LPS treatment for 16 hrs by Western blot analysis; type: functional, cell-based; conditions: Homo sapiens, dose 0.5-5 µM, time 16.5 hrs
[15] = Anti-inflammatory activity against HBE cells assessed as inhibition of LPS-induced IL-8 level at 5 uM pretreated for 30 mins followed by LPS treatment for 24 hrs by ELISA relative to control; type: functional; conditions: Homo sapiens, time 24.5 hrs
[16] = Oral bioavailability in Sprague-Dawley rat at 3.5 mg/kg measured for 24 hrs by LC-MS/MS analysis; type: ADME, organism-based; conditions: in vivo
Mus musculus [17] = assay: as §1, with “IL-6 mRNA level” for “alveolar hemorrhage”, “RT-qPCR” for “H and E staining based”; type: functional, organism-based; conditions: time 91.0 hrs
HBE [18] = assay: Anti-inflammatory activity against HBE cells assessed as inhibition of LPS-induced IL-6 level pretreated for 30 mins followed by LPS treatment for 24 hrs by ELISA; conditions: Homo sapiens, dose <= 5.0 µM, time 24.5 hrs
Mus musculus [19] = assay: Anti-inflammatory activity in C57BL/6 mouse model of LPS-induced acute lung injury assessed as decrease in number of total cells in BALF at 10 mg/kg, ip treated for 3 days followed by LPS treatment after 1 hr post-compound administration on fourth day measured after 18 hrs post-LPS treatment; type: functional, organism-based; conditions: time 91.0 hrs
[20] = AUC (0 to infinity) in Sprague-Dawley rat at 3.5 mg/kg, po measured for 24 hrs by LC-MS/MS analysis; type: ADME, organism-based; conditions: in vivo
Mus musculus [21] = assay: Anti-inflammatory activity in C57BL/6 mouse model of LPS-induced acute lung injury assessed as decrease in TNF-alpha mRNA level in lung at 10 mg/kg, ip treated for 3 days followed by LPS treatment after 1 hr post-compound administration on fourth day measured after 18 hrs post-LPS treatment by RT-qPCR analysis; type: functional, organism-based; conditions: time 91.0 hrs
RAW264.7 [22] = assay: Anti-inflammatory activity against mouse RAW264.7 cells transfected with CTSL siRNA assessed as inhibition of LPS-induced IL-6 level by Western blot analysis; type: functional, cell-based
[23] = AUC (0 to t) in Sprague-Dawley rat at 3.5 mg/kg, ip measured for 24 hrs by LC-MS/MS analysis; type: ADME, organism-based; conditions: in vivo
RAW264.7 [24] = assay: Anti-inflammatory activity against mouse RAW264.7 cells assessed as inhibition of LPS-induced IL-6 mRNA level at 50 to 500 nM by RT-qPCR analysis; type: functional, cell-based; conditions: dose 50-500 nM
Mus musculus [25] = assay: Anti-inflammatory activity in C57BL/6 mouse model of LPS-induced acute lung injury assessed as decrease in wet to dry ratio in lung at 10 mg/kg, ip treated for 3 days followed by LPS treatment after 1 hr post-compound administration on fourth day measured after 18 hrs post-LPS treatment; type: functional, organism-based; conditions: time 91.0 hrs
Mus musculus [26] = assay: Anti-inflammatory activity in C57BL/6 mouse model of LPS-induced acute lung injury assessed as decrease in total protein concentration in BALF at 10 mg/kg, ip treated for 3 days followed by LPS treatment after 1 hr post-compound administration on fourth day measured after 18 hrs post-LPS treatment; type: functional, organism-based; conditions: time 91.0 hrs

T1 sequence (P07711 114-333 limits assumed): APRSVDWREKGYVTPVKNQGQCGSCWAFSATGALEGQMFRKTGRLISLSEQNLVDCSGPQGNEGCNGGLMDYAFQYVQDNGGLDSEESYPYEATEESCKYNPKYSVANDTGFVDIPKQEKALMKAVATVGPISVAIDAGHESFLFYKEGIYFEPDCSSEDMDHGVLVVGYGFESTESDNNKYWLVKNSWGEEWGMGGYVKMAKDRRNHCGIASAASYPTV
Chain of Receptor-type tyrosine-protein kinase FLT3 (Homo sapiens) (P36888 whole entry): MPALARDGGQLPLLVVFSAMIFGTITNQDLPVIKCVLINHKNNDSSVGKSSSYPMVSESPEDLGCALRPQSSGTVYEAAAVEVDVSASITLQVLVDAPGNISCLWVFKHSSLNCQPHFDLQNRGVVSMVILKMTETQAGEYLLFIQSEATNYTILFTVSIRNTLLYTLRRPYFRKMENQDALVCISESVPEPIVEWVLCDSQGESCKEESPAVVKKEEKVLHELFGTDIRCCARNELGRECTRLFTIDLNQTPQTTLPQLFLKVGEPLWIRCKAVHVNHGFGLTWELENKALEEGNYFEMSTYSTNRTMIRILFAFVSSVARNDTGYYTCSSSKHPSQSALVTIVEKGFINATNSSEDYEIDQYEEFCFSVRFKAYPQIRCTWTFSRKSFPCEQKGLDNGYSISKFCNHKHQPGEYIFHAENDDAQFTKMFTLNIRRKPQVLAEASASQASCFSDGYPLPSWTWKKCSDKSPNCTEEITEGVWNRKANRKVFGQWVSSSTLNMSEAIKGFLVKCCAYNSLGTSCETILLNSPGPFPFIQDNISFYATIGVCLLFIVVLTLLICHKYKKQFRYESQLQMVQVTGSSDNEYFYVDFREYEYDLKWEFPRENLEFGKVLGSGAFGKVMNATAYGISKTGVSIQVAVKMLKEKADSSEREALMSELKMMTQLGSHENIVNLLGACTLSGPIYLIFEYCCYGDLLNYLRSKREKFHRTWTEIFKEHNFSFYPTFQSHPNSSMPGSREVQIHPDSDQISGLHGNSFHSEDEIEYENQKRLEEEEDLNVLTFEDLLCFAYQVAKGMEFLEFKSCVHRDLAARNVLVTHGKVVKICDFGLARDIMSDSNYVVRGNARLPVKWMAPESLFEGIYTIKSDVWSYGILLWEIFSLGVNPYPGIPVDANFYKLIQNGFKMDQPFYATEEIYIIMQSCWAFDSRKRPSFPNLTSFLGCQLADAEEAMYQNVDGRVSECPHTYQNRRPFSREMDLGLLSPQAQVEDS

With `Cl.Cn1cc(-c2ccnc(Nc3cccc(N)c3)n2)c2ccccc21` the Activity (Mus musculus [1]) was “Active”, the IC50 (cells) was 1350 nM and the inhibition (Procathepsin L [2]) was “Dose-dependent-effect”. The inhibition (Mus musculus [3]) was “Active”, the Activity (Mus musculus [4]) was “Active” and the Cmax [5] was 655 ng/mL. The half-life [6] was 4.73 h, the Activity (Procathepsin L [7]) was “Active” and the Activity (Mus musculus [8]) was “Active”. For the same compound, the IC50 (RAW264.7 [9]) was 91.2 nM, the Activity (Mus musculus [10]) was “Active” and the inhibition (RAW264.7 [11]) was “Active; Result Indicates Compound Suppresses Mapk Pathway”. For the same compound, the inhibition [12] was 103%, the inhibition [13] was 81.7% and the inhibition (HBE [14]) was “Dose-dependent-effect”. The inhibition at 5 µM [15] was 85%, the bioavailability [16] was 24.9% and the Activity (Mus musculus [17]) was “Active”. For the same compound, the inhibition (HBE [18]) was “Dose-dependent-effect”, the Activity (Mus musculus [19]) was “Active” and the AUC(0-inf) [20] was 159 ng·h/mL. For the same compound, the Activity (Mus musculus [21]) was “Active”, the inhibition (RAW264.7 [22]) was “inactive” and the AUC(0-t) at 24 h [23] was 407 ng·h/mL. The inhibition (RAW264.7 [24]) was “Active”, the Activity (Mus musculus [25]) was “Active” and the Activity (Mus musculus [26]) was “Active”.
